Read-outs that look alike come from different tables or passages of the source.
Legend:
A2BAR [1] = assay: cAMP accumulation in COS-7 cells endogenously expressing the A2BAR
A2BAR [2] = biological target: T1, A2BAR (Homo sapiens, UniProt P29275); assay: cAMP accumulation in 1321N1 astrocytoma cells endogenously expressing the A2BAR
T1 sequence (P29275 1-332): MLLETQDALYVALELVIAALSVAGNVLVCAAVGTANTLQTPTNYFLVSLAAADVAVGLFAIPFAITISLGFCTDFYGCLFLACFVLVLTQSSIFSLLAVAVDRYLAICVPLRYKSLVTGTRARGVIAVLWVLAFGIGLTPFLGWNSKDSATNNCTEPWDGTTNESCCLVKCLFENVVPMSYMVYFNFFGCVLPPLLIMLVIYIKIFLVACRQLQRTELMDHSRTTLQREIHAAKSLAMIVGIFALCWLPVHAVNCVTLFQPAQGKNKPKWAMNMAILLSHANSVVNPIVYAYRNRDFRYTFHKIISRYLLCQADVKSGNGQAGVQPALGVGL

[3] = tested on: MIN-6 mouse pancreatic β cells; assay: Insulin release in MIN6 cells; type: cell-based; conditions: MIN-6 cells, 16.7 mM glucose, 1 h
A2BAR [4] = biological target: T1, A2BAR; assay: cAMP accumulation in HEK293 cells overexpressing the A2BAR
A2BAR [5] = biological target: T1, A2BAR; assay: Intracellular calcium mobilization in HEK293 cells; conditions: HEK293, read-out: Max effect Calcium (% of effect of NECA)
A2BAR [6] = biological target: T1, A2BAR; assay: cAMP accumulation in HEK293 cells endogenously expressing the A2BAR
A2BAR [7] = biological target: T1, A2BAR; assay: cAMP accumulation in WM266 melanoma cells endogenously expressing the A2BAR; conditions: WM266, read-out: Max effect cAMP accumulation
A2BAR [8] = biological target: T1, A2BAR
A2BAR [9] = biological target: T1, A2BAR; assay: cAMP accumulation in T24 cells endogenously expressing the A2BAR
mouse A2BAR [10] = assay: β-Arrestin2 translocation in PathHunter CHO cells
mouse A2BAR [11] = biological target: T2, mouse A2BAR (Mus musculus, UniProt Q60614); assay: β-Arrestin2 translocation in PathHunter CHO cells
T2 sequence (Q60614 1-332): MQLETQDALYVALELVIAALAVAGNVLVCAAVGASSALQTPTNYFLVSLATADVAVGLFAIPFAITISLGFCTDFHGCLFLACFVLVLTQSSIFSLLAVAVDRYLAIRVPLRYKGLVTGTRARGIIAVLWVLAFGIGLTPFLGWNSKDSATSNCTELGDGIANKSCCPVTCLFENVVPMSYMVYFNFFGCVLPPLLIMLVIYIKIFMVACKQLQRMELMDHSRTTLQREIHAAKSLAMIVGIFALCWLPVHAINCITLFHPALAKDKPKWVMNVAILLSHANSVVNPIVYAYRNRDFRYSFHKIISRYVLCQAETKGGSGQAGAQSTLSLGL

A2BAR [12] = biological target: T1, A2BAR; assay: Intracellular calcium mobilization in HEK293 cells overexpressing the A2BAR
A2BAR [13] = biological target: T1, A2BAR; assay: Intracellular calcium mobilization in T24 cells; conditions: T-24, read-out: Max effect Calcium (% of effect of NECA)
A2BAR [14] = biological target: T1, A2BAR; assay: ERK1/2 phosphorylation in HEK293 cells
A2BAR [15] = biological target: T1, A2BAR; assay: ERK1/2 phosphorylation in T24 cells
A2BAR [16] = biological target: T1, A2BAR; assay: ERK1/2 phosphorylation in HEK293 cells overexpressing the A2BAR
[17] = HEK293, read-out: Max effect cAMP (% of effect of NECA)
[18] = HEK293, read-out: Max effect ERK1/2 (% of effect of NECA)

N#Cc1c(N)nc(SCC(N)=O)c(C#N)c1-c1ccc(OCC2CC2)cc1 [BAY, 2-[[6-amino-3,5-dicyano-4-[4-(cyclopropylmethoxy)phenyl]-2-pyridinyl]thio]acetamide]
Max effect cAMP accumulation (A2BAR [1]; NECA = 100): 98.3±3.7%
EC50 (A2BAR [1]; read-out: EC50 cAMP accumulation): 7.9 ± 1.2 nM
EC50 (A2BAR [2]): 113 ± 17 nM
Emax (A2BAR [2]; 1321-N1, read-out: Max effect cAMP accumulation): 52.6 ± 3.1%
Glucose stimulated insulin secretion [3]: induced insulin secretion
EC50 (A2BAR [4]): 6.14 ± 1.61 nM
Kd (A2BAR [4]): 705 nM
Emax (A2BAR [4]; [17]): 102 ± 1%
log (τ/KA) (A2BAR [4]; cAMP pathway): 8.15 ± 0.38
τ (A2BAR [4]; cAMP pathway, operational model, A2BAR-overexpressing HEK293): 100
Δlog (τ/Ka) (A2BAR [4]; cAMP pathway, relative to NECA): 0.73 ± 0.04
Emax (A2BAR [5]): -2.4 ± 1.7%
EC50 (A2BAR [6]): 296 ± 146 nM
Emax (A2BAR [6]; [17]): 73 ± 12.1%
τ value (operational model), cAMP accumulation (A2BAR [6]; HEK293 cells, siRNA silencing / overexpression methods): 1.54
Emax (A2BAR [7]): 9.8 ± 1.7%
EC50 (A2BAR [8]): 45.3 ± 5.9 nM
Emax (A2BAR [8]; PC-3, read-out: Max effect cAMP accumulation): 72.6 ± 5.1%
EC50 (A2BAR [9]; EC50 cAMP accumulation, T24 cells, 5 nM A2BAR siRNA): 102 ± 17 nM
EC50 (A2BAR [9]; EC50 cAMP accumulation, T24 cells, 50 nM A2BAR siRNA): 127 ± 31 nM
EC50 (A2BAR [9]; EC50 cAMP accumulation, T24 cells, 500 nM A2BAR siRNA): 93 ± 19 nM
EC50 (A2BAR [9]; EC50 cAMP accumulation, T24 cells, absence of A2BAR siRNA): 98 ± 22 nM
EC50 (A2BAR [9]; EC50 cAMP, T24 cells): 43 ± 17.7 nM
maximum agonist effect, cAMP accumulation (NECA as 100%) (A2BAR [9]; T24 cells, 5 nM A2BAR siRNA): 54 ± 4%
maximum agonist effect, cAMP accumulation (NECA as 100%) (A2BAR [9]; T24 cells, 50 nM A2BAR siRNA): 48 ± 6%
maximum agonist effect, cAMP accumulation (NECA as 100%) (A2BAR [9]; T24 cells, 500 nM A2BAR siRNA): 36 ± 3%
maximum agonist effect, cAMP accumulation (NECA as 100%) (A2BAR [9]; T24 cells, absence of A2BAR siRNA): 68 ± 7%
τ value (operational model), cAMP accumulation (A2BAR [9]; T24 cells, siRNA silencing / overexpression methods): 1.19
Emax (A2BAR [9]; T-24, read-out: Max effect cAMP (% of effect of NECA)): 62.9 ± 9.6%
ΔΔlog (τ/KA) (mouse A2BAR [10]; β-Arrestin versus cAMP reference pathway): 2.16
Bias (mouse A2BAR [10]; β-Arrestin versus cAMP, bias ≫1 disfavors the pathway): 145
EC50 (mouse A2BAR [11]): 5620 ± 1240 nM
Kd (mouse A2BAR [11]): 12300 nM
Emax (mouse A2BAR [11]; CHO, read-out: Max effect β-arrestin (% of effect of NECA)): 26.6 ± 3%
log (τ/KA) (mouse A2BAR [11]; β-Arrestin pathway): 4.30 ± 0.17
τ (mouse A2BAR [11]; β-Arrestin pathway, operational model, CHO mouse A2BAR): 0.25
Δlog (τ/Ka) (mouse A2BAR [11]; β-Arrestin pathway, relative to NECA): -1.43 ± 0.09
EC50 (A2BAR [12]): 1100 ± 390 nM
Kd (A2BAR [12]): 1670 nM
log (τ/KA) (A2BAR [12]; Calcium pathway): 4.66 ± 0.35
τ (A2BAR [12]; Calcium pathway, operational model, A2BAR-overexpressing HEK293): 0.08
ΔΔlog (τ/KA) (A2BAR [12]; Calcium versus cAMP reference pathway): 4.22
Bias (A2BAR [12]; Calcium versus cAMP, bias ≫1 disfavors the pathway): 16600
Emax (A2BAR [13]): 2.3 ± 1.5%
EC50 (A2BAR [14]): 68.8 ± 4.7 nM
Emax (A2BAR [14]; [18]): 38.3 ± 5.9%
ERK1/2 stimulation (A2BAR [15]; T24 cells): did not produce any stimulation
Emax (A2BAR [15]; T-24, read-out: Max effect ERK1/2 (% of effect of NECA)): -9.4 ± 3.8%
EC50 (A2BAR [16]): 28.9 ± 4.1 nM
Kd (A2BAR [16]): 59.5 nM
log (τ/KA) (A2BAR [16]; ERK1/2 pathway): 7.02 ± 0.44
τ (A2BAR [16]; ERK1/2 pathway, operational model, A2BAR-overexpressing HEK293): 0.62
Δlog (τ/Ka) (A2BAR [16]; ERK1/2 pathway, relative to NECA): 1.39 ± 0.17
ΔΔlog (τ/KA) (A2BAR [16]; ERK1/2 versus cAMP reference pathway): -0.66
Bias (A2BAR [16]; ERK1/2 versus cAMP, bias ≫1 disfavors the pathway): 0.22
Emax (A2BAR [16]; [18]): 38.4 ± 3.3%
